Where two headings read alike, the source gives them in different places.
Legend:
[1] = format: in vivo; conditions: mancozeb:fluazinam 1:1, mancozeb:dimethomorph 2:1, Formul. I/II at 100 ppm, untreated check 95%
[2] = system: Pseudoperonospora cubensis (PSPECU); conditions: in vivo
[3] = system: Phytophthora infestans (PHYTIN); format: in vivo; conditions: for effect of Formulation I on the effectiveness of fungicides, PHYTIN: Table 20
[4] = system: Plasmopara viticola (PLASVI); format: in vivo; conditions: for Reduction in percent disease: aldehyde derivative 100 ppm with mancozeb
[5] = system: Pseudoperonospora cubensis; assay: Drop-band treatment of cucumber leaves, then spray inoculation with zoospores (Examples 1-3); format: in vivo
Procedure: The following examples were carried out on greenhouse and growth chamber experiments on cucumber plants. The cucumber plants were grown from seed in soil-free medium mix (Metro-Mix 360®) and maintained in a glasshouse with supplementary light sources to provide a 16 hour photoperiod at 24-29° C. until the plants had produced 1-2 true leaves. Plants were then trimmed to 1 true leaf, approximately 8 cm across by removing any additional leaves.
Referring below to Table 1, Dithane M45 and Dithane OS are standard commercial formulations. Isovaleraldehyde loaded onto PergoPak was prepared using the following procedure: a mixture of 1.35 g of PergoPak M (polyurea), 0.15 g of isovaleraldehyde and 8 mL of ether was stirred at room temperature for 10 min. The mixture was then concentrated by rotatory evaporation at room temperature under a slight vacuum to provide a solid that was air dried for an hour at room temperature and then bottled. All treatments were prepared by adding the appropriate amount of each treatment to distilled water to give the desired concentration of active ingredient. Dithane® M45 suspensions were initially prepared via serial dilution. Mancozeb/isovaleraldehyde solutions were prepared by adding a prepared isovaleraldehyde solution to a prepared mancozeb suspension. All solutions were vortexed and sonicated prior to treatment application to ensure that they were homogenous.
A sporangial suspension of Pseudoperonospora cubensis was made by collecting leaves with freshly sporulating lesions and washing them in distilled water, which was made up of equal volumes of chilled (4° C.) and tap distilled water (21° C.). The suspension was then left on the lab bench for 2 hours to allow the release of zoospores from the sporangia. After 2 hours the suspension was filtered through filter paper (“Whatman”, 12.5 cm, grade 113V) to remove any remaining sporangia and mycelial fragments. The zoospore concentration was determined and then adjusted to the desired concentration with distilled water.
For each example described below, an area 5 cm wide by 1 cm deep was initially marked on each cucumber leaf by placing a mark in each corner of the area. This was repeated on four separate plants to give four replicates for each treatment. Ten 15 microlitre drops were then applied to each leaf in two 5 drop bands (1 cm between each drop) and allowed to dry overnight. Subsequently a zoospore suspension of Pseudoperonospora cubensis (30,000 zoospores/mL) was sprayed with a hand-atomiser to the entire leaf until run-off. Plants were placed in a dew room (22° C. and 99% RH) for 24 hours then maintained in a growth room with supplementary light sources to provide a 14 hour photoperiod at 18° C. and 70% RH until disease assessment.
Assessment of the effectiveness of the treatment was done by visual infection within the banded area. The banded area was evaluated on a percentage scale (with 0% representing no infection and 100% representing infection of the entire area) after 5-7 days.

[6] = system: Phytophthora infestans; format: in vivo; conditions: for % Disease: potatoes, field, six sprays, rated 8 days after sixth application; for Disease control compared to Dithane alone (in words): combined with Dithane, potato field trial
[7] = system: Pseudoperonospora cubensis (PSPECU); assay: Droplet application on cucumber leaf, growth chamber (Examples 5a-d); format: in vivo
Procedure: Examples 5a through 5d were conducted in growth chambers on cucumber plants. Cucumbers (Cucumis sativus cv Bush Pickle Hybrid #901261) were grown from seed in 5 cm by 5 cm pots containing MetroMix™ growth medium (Scotts, Marysville, Ohio) and maintained in a glasshouse with supplementary light sources to provide a 14 hour photoperiod at 24-29° C. until the plants were in the 2-3 true leaf stage of growth and the oldest leaf was fully expanded.
For examples 5a through 5d, described below, samples of mancozeb formulated as Dithane DG NT were dissolved in water to form a ½×dilution series. Mancozeb rates were 400, 200, 100 and 50 ppm. Samples of various aldehydes, amino acids, carboxylic acids, amines and alcohols were dissolved in acetone and then mixed with aqueous solutions of mancozeb. Attractant rates in the dilute solutions were 100, 200, 500 or 1000 ppm, depending on the experiment.
Mixtures of attractant or attractant derivative plus mancozeb or mancozeb alone were applied to cucumber as a row of 5 or 7.5 ul droplets using a multi-channel pipetting device. Five droplets spaced 1 cm apart were placed along the mid-rib of the expanded cucumber leaf with the first droplet being positioned at least 1-cm from the leaf apex. Each treatment was replicated three or four times, depending on the experiment. Two to three hours after applying the treatments when droplets had dried, plants were inoculated with a suspension of sporangia of a Pseudoperonospora cubensis (PSPECU) and incubated as described in the methods for sprayed tests. When symptoms were well developed in untreated check plants, the experiment was assessed visually using a template 2 cm wide and 7 cm long with the long axis centered on the mid-rib of the treated leaf.
Reduction in percent disease was calculated by subtracting percent disease on plants receiving a mixture of mancozeb plus the specified test substance from percent disease on plants receiving mancozeb alone. The results for examples 5a-5d are shown below in Tables 7-10; the reduction in percent disease was indicated as follows: […]

[8] = fungicide with Formulation I at 100 ppm, Table 18
[9] = fungicide with Formulation I at 100 ppm, Table 19
[10] = fungicide with Formulation I at 100 ppm
[11] = Dithane 600 g ai/ha plus 300 ppm compound
[12] = substance alone 500 ppm, untreated check 95

For mancozeb, the Percent disease ([1]; 1.6 ppm mancozeb) was 71%, the Percent disease ([1]; 3.1 ppm mancozeb) was 79% and the “effect of Formulation I on the effectiveness of fungicides, PSPECU” value [2] was “xx (key: x: 0-20% reduction in percent disease; xx: 21-35% reduction in percent disease; xxx: 36-50% reduction in percent disease; xxxx: >50% reduction in percent disease)”. The “Reduction in percent disease PHYTIN” value [3, 8] was “x (0-20% reduction in percent disease)”, the “Reduction in percent disease PHYTIN” value [3, 9] was “xxx (36-50% reduction in percent disease)” and the “effect of Formulation I on the effectiveness of fungicides, PHYTIN” value [3, 10] was “xx (21-35% reduction in percent disease)”. For the same compound, the “Reduction in percent disease PLASVI” value [4, 8] was “xx (21-35% reduction in percent disease)”, the “Reduction in percent disease PLASVI” value [4, 9] was “xx (21-35% reduction in percent disease)” and the “effect of Formulation I on the effectiveness of fungicides, PLASVI” value ([4]; fungicide with Formulation I at 100 ppm, Table 20) was “xx (21-35% reduction in percent disease)”. The “Percent infection of Pseudoperonospora cubensis on cucumbers” value (“Percent infection” below) ([5]; mancozeb 10 ppm (Dithane 60 OS) alone, 5 days after application) was 31%, the “Percent infection” value ([5]; mancozeb 10 ppm (Dithane M45) alone, 6 days after application) was 31% and the “Percent infection” value ([5]; mancozeb 10 ppm (Dithane M45) alone, 7 days after application) was 30%. For the same compound, the “Percent infection” value ([5]; mancozeb 50 ppm (Dithane 60 OS) alone, 5 days after application) was 25%, the “Percent infection” value ([5]; mancozeb 50 ppm (Dithane M45) alone, 6 days after application) was 21% and the “Percent infection” value ([5]; mancozeb 50 ppm (Dithane M45) alone, 7 days after application) was 11%. For the same compound, the “Percent infection” value ([5]; mancozeb 100 ppm (Dithane 60 OS) alone, 5 days after application) was 10%, the “Percent infection” value ([5]; mancozeb 100 ppm (Dithane M45) alone, 6 days after application) was 16% and the “Percent infection” value ([5]; mancozeb 100 ppm (Dithane M45) alone, 7 days after application) was 6%.

In the case of `CC(C)CC(O)S(=O)(=O)[O-].[Na+]` (stereo not shown) [Isovaleraldehyde bisulfite adduct, sodium], the “Percent infection” value ([5]; isovaleraldehyde bisulfite adduct, sodium 100 ppm alone, 7 days) was 45%.

With `CCC(C)(NC(=O)c1cc(Cl)c(C)c(Cl)c1)C(=O)CCl` (stereo not shown) [Zoxamide, zoxamide] the “effect of Formulation I on the effectiveness of fungicides, PSPECU” value [2] was “x (key: x: 0-20% reduction in percent disease; xx: 21-35% reduction in percent disease; xxx: 36-50% reduction in percent disease; xxxx: >50% reduction in percent disease)”, the “effect of Formulation I on the effectiveness of fungicides, PHYTIN” value [3, 10] was “xx (21-35% reduction in percent disease)” and the “Percent infection” value ([5]; zoxamide 1 ppm alone, 7 days after application) was 28%. For the same compound, the “Percent infection” value ([5]; zoxamide 5 ppm alone, 7 days after application) was 16% and the “Percent infection” value ([5]; zoxamide 25 ppm alone, 7 days after application) was 16%.

In the case of `CCCC=NNC(=O)Nc1ccccc1` [Compound A], the “Reduction in percent disease” value [2] was “xx (key: x: 0-20% reduction in percent disease; xx: 21-35% reduction in percent disease; xxx: 36-50% reduction in percent disease; xxxx: >50% reduction in percent disease)”, the “Reduction in percent disease” value ([4]; PLASVI, Table 13) was “xx (21-35% reduction in percent disease)” and the “% Disease” value ([6]; 300 ppm compound alone) was 98%. The “% Disease” value [6, 11] was 20% and the “Disease control compared to Dithane alone (in words)” value [6] was “significantly improve disease control”.

For `N#Cc1c(Cl)c(Cl)c(Cl)c(C#N)c1Cl` [Chlorothalonil, chlorothalonil], the “Reduction in percent disease, Formul. I” value [2] was “x (key: x: 0-20% reduction in percent disease; xx: 21-35% reduction in percent disease; xxx: 36-50% reduction in percent disease; xxxx: >50% reduction in percent disease)”, the “Reduction in percent disease, Formul. I” value ([3]; PHYTIN, fungicide with Formulation I at 100 ppm of attractant derivative, Table 22) was “x (0-20% reduction in percent disease)” and the “Reduction in percent disease, Formul. I” value ([4]; PLASVI, fungicide with Formulation I at 100 ppm of attractant derivative, Table 22) was “x (0-20% reduction in percent disease)”. The “Percent infection” value ([5]; chlorothalonil 5 ppm alone, 7 days after application) was 24%, the “Percent infection” value ([5]; chlorothalonil 20 ppm alone, 7 days after application) was 9% and the “Percent infection” value ([5]; chlorothalonil 100 ppm alone, 7 days after application) was 0%.

In the case of “condensation product of urea and isovalderaldehyde [Compound B]”, the “Reduction in percent disease” value [2] was “x (key: x: 0-20% reduction in percent disease; xx: 21-35% reduction in percent disease; xxx: 36-50% reduction in percent disease; xxxx: >50% reduction in percent disease)”, the “Reduction in percent disease” value ([4]; PLASVI, Table 13) was “xx (21-35% reduction in percent disease)” and the “Reduction in percent disease” value ([4]; PLASVI, Table 15) was “xx (21-35% reduction in percent disease)”. For the same compound, the “% Disease” value ([6]; 300 ppm compound alone) was 98%, the “% Disease” value [6, 11] was 9% and the “Disease control compared to Dithane alone (in words)” value [6] was “significantly improve disease control”.

With `CC(C)CC=O` [Isovaleraldehyde, isovaleraldehyde] the “Reduction in % Disease” value ([7]; substance 100 ppm with mancozeb 200 ppm vs mancozeb alone, Table 9) was “xx (21-35% reduction in percent disease)”, the “Reduction in % Disease” value ([7]; substance 200 ppm with mancozeb 50 ppm vs mancozeb alone, cucumber) was “xxxx (>50% reduction in percent disease)” and the “Reduction in % Disease” value ([7]; substance 500 ppm with mancozeb 200 ppm vs mancozeb alone, Table 8) was “xx (21-35% reduction in percent disease)”. For the same compound, the “Reduction in % Disease” value ([7]; substance 1000 ppm with mancozeb 50 ppm vs mancozeb alone, cucumber) was “xxx (36-50% reduction in percent disease)”, the “% disease at 100 ppm of substance alone” value ([7]; substance alone 100 ppm, untreated check 92%, Table 9) was 86% and the “% disease at 500 ppm of substance alone” value ([7]; substance alone 500 ppm, untreated check 91%) was 93%. For the same compound, the “% disease at 1000 ppm of substance alone” value ([7]; substance alone 1000 ppm, untreated check 100%) was 100%, the “Reduction in percent disease PHYTIN” value ([3]; substance 500 ppm with mancozeb 25 ppm (Dithane DGNT), foliar spray, inoculated 2 to 3 hours after treatment) was “xxx (36-50% reduction in percent disease)” and the “% disease at 500 ppm of substance alone PHYTIN” value [3, 12] was 77%. The “Reduction in percent disease PLASVI” value ([4]; substance 500 ppm with mancozeb 6.25 ppm (Dithane DGNT), foliar spray, inoculated 2 to 3 hours after treatment) was “xxx (36-50% reduction in percent disease)”, the “% disease at 500 ppm of substance alone PLASVI” value [4, 12] was 93% and the “Percent infection” value ([5]; isovaleraldehyde 50 ppm (sorbed to PergoPak M) alone, 5 days after application) was 41%. The “Percent infection” value ([5]; isovaleraldehyde 100 ppm (sorbed to PergoPak M) alone, 5 days after application) was 34%, the “Percent infection” value ([5]; isovaleraldehyde 100 ppm alone, 7 days after application) was 41% and the “Percent infection” value ([5]; isovaleraldehyde 500 ppm (sorbed to PergoPak M) alone, 5 days after application) was 44%. For the same compound, the “Percent infection” value ([5]; pure isovaleraldehyde 50 ppm alone, 6 days after application) was 51% and the “Percent infection” value ([5]; pure isovaleraldehyde 100 ppm alone, 6 days after application) was 44%.
